Converted amounts (≈) assume the structure as drawn.
Key:
[1] = test system: Staphylococcus aureus; experiment: In vitro minimum inhibitory concentration against Methicillin-resistant Staphylococcus aureus(GC 4544); type: functional
[2] = test system: Enterococcus faecium; experiment: In vitro minimum inhibitory concentration against vancomycin-resistant Enterococcus faecium (GC 4558); type: functional
[3] = test system: Enterococcus faecium; experiment: In vitro minimum inhibitory concentration against vancomycin-susceptible Enterococcus faecium (GC 4557); type: functional
[4] = test system: Bacillus cereus; experiment: In vitro minimum inhibitory concentration against Bacillus cereus (GC 4561) assay organism; type: functional
[5] = test system: Staphylococcus haemolyticus; experiment: In vitro minimum inhibitory concentration against methicillin-resistant Coagulase-negative Staphylococci (MRCNS) (GC 4548)); type: functional
[6] = test system: Enterococcus faecalis; experiment: In vitro minimum inhibitory concentration against vancomycin-susceptible Enterococcus faecalis (GC 4552); type: functional
[7] = test system: Streptococcus pneumoniae; experiment: In vitro minimum inhibitory concentration against Penicillin resistant Streptococcus pneumoniae (GC 1894); type: functional
[8] = test system: Streptococcus pyogenes; experiment: In vitro minimum inhibitory concentration against Streptococcus pyogenes (GC 4563)
[9] = test system: Staphylococcus aureus; experiment: In vitro minimum inhibitory concentration against glycopeptide tntermediate Staphylococcus aureus (GC 3051); type: functional
[10] = test system: Staphylococcus aureus; experiment: In vitro minimum inhibitory concentration against Methicillin-resistant Staphylococcus aureus (GC 4542); type: functional
[11] = test system: Staphylococcus aureus; experiment: In vitro minimum inhibitory concentration against Methicillin-resistant Staphylococcus aureus (GC 4543); type: functional
[12] = test system: Enterococcus faecium; experiment: In vitro minimum inhibitory concentration against vancomycin-resistant Enterococcus faecium (GC 2243); type: functional
[13] = test system: Staphylococcus haemolyticus; experiment: In vitro minimum inhibitory concentration against methicillin-susceptible Coagulase-negative Staphylococci (MSCNS) (GC 6257); type: functional
[14] = test system: Staphylococcus haemolyticus; experiment: In vitro minimum inhibitory concentration against methicillin-resistant Coagulase-negative Staphylococci (MRCNS) (GC 4547)); type: functional
[15] = test system: Enterococcus faecalis; experiment: In vitro minimum inhibitory concentration against vancomycin-susceptible Enterococcus faecalis (GC 4553); type: functional
[16] = test system: Enterococcus sp.; experiment: In vitro minimum inhibitory concentration against Enterococcus species (11 strains, including VRE); type: functional
[17] = test system: Enterococcus faecium; experiment: In vitro minimum inhibitory concentration against vancomycin-susceptible Enterococcus faecium (GC 4556); type: functional
[18] = test system: Enterococcus faecalis; experiment: In vitro minimum inhibitory concentration against vancomycin-susceptible Enterococcus faecalis (GC 4555); type: functional
[19] = test system: Streptococcus pneumoniae; experiment: In vitro minimum inhibitory concentration against Penicillin susceptible Streptococcus pneumoniae (GC 6242); type: functional
[20] = test system: Staphylococcus aureus; experiment: In vitro minimum inhibitory concentration against Methicillin-resistant Staphylococcus aureus (GC 2216); type: functional
[21] = test system: Streptococcus pneumoniae; experiment: In vitro minimum inhibitory concentration against Penicillin susceptible Streptococcus pneumoniae (GC 4565)
[22] = test system: Enterococcus faecalis; experiment: In vitro minimum inhibitory concentration against vancomycin-resistant Enterococcus faecalis (GC 3059); type: functional
[23] = test system: Staphylococcus aureus; experiment: In vitro minimum inhibitory concentration against Staphylococcus aureus (10strains, including MRSA); type: functional
[24] = test system: Micrococcus luteus; experiment: In vitro minimum inhibitory concentration against Micrococcus lutea (GC 4562); type: functional
[25] = test system: Staphylococcus aureus; experiment: In vitro minimum inhibitory concentration against Methicillin-resistant Staphylococcus aureus(GC 4541); type: functional
[26] = test system: Enterococcus faecalis; experiment: In vitro minimum inhibitory concentration against vancomycin-susceptible Enterococcus faecalis (GC 4554); type: functional
[27] = test system: Staphylococcus aureus; experiment: In vitro minimum inhibitory concentration against glycopeptide tntermediate Staphylococcus aureus (GC 3066); type: functional
[28] = test system: Enterococcus faecalis; experiment: In vitro minimum inhibitory concentration against vancomycin-resistant Enterococcus faecalis (GC 6189); type: functional
[29] = test system: Streptococcus; experiment: In vitro minimum inhibitory concentration against Streptococcus Species (5 strains, including PRSP); type: functional
[30] = test system: Staphylococcus haemolyticus; experiment: In vitro minimum inhibitory concentration against methicillin-susceptible Coagulase-negative Staphylococci (MSCNS) (GC 4551); type: functional
[31] = test system: Staphylococcus haemolyticus; experiment: In vitro minimum inhibitory concentration against methicillin-resistant Coagulase-negative Staphylococci (MRCNS) (GC 4546)); type: functional
[32] = test system: Staphylococcus haemolyticus; experiment: In vitro minimum inhibitory concentration against methicillin-susceptible Coagulase-negative Staphylococci (MSCNS) (GC 4549)); type: functional
[33] = test system: Enterococcus faecalis; experiment: In vitro minimum inhibitory concentration against vancomycin-susceptible Enterococcus faecalis (GC 2691); type: functional
[34] = test system: Staphylococcus aureus; experiment: In vitro minimum inhibitory concentration against Methicillin-resistant Staphylococcus aureus (GC 1131); type: functional
[35] = test system: Streptococcus agalactiae; experiment: In vitro minimum inhibitory concentration against Streptococcus agalactiae (GC4564)
[36] = test system: Enterococcus faecalis; experiment: In vitro minimum inhibitory concentration against vancomycin-resistant Enterococcus faecalis (GC 2242); type: functional
[37] = test system: Staphylococcus aureus; experiment: In vitro minimum inhibitory concentration against Methicillin-resistant Staphylococcus aureus(GC 4545); type: functional
[38] = test system: Streptococcus pneumoniae; experiment: In vitro minimum inhibitory concentration against Penicillin susceptible Streptococcus pneumoniae (GC 4565); remark: listed apart in the source
[39] = test system: Enterococcus faecium; experiment: In vitro minimum inhibitory concentration against vancomycin-susceptible Enterococcus faecium (GC 4557)
[40] = test system: Enterococcus faecium; experiment: In vitro minimum inhibitory concentration against vancomycin-susceptible Enterococcus faecium (GC 4556)
[41] = test system: Staphylococcus aureus; experiment: In vitro minimum inhibitory concentration against Methicillin-susceptible Staphylococcus aureus(GC 4544); type: functional
[42] = test system: Staphylococcus aureus; experiment: In vitro minimum inhibitory concentration against Methicillin-susceptible Staphylococcus aureus (GC 2216); type: functional
[43] = test system: Staphylococcus haemolyticus; experiment: In vitro minimum inhibitory concentration against methicillin-resistant Coagulase-negative Staphylococci (MRCNS) hemolyticu (GC 4546)); type: functional
[44] = test system: Staphylococcus aureus; experiment: In vitro minimum inhibitory concentration against Methicillin-susceptible Staphylococcus aureus (GC 4543); type: functional
[45] = test system: Enterococcus faecium; experiment: In vitro minimum inhibitory concentration against vancomycin-resistant Enterococcus faecium (GC 4558)
[46] = test system: Staphylococcus aureus; experiment: In vitro minimum inhibitory concentration against Methicillin-susceptible Staphylococcus aureus(GC 4545); type: functional
[47] = test system: Streptococcus pyogenes; experiment: In vitro minimum inhibitory concentration against Streptococcus pyogenes (GC 4563); type: functional
[48] = test system: Enterococcus faecium; experiment: In vitro minimum inhibitory concentration against vancomycin-resistant Enterococcus faecium (GC 2243)
[49] = test system: Streptococcus agalactiae; experiment: In vitro minimum inhibitory concentration against Streptococcus agalactiae (GC4564); remark: listed apart in the source

Row | Structure (SMILES) | MIC [4] [µg/mL] | MIC [5] [µg/mL] | MIC [6] [µg/mL] | MIC [7] [µg/mL] | MIC [9] [µg/mL] | MIC [10] [µg/mL] | MIC [13] [µg/mL] | MIC [14] [µg/mL] | MIC [15] [µg/mL] | MIC [16] [µg/mL] | MIC [18] [µg/mL] | MIC [19] [µg/mL] | MIC [22] [µg/mL] | MIC [23] [µg/mL] | MIC [24] [µg/mL] | MIC [25] [µg/mL] | MIC [26] [µg/mL] | MIC [27] [µg/mL] | MIC [28] [µg/mL] | MIC [29] [µg/mL] | other results
1 | C[C@@H](c1ccccc1)[C@@H]1NC(=O)CNC(=O)[C@H](CO)NC(=O)[C@@H]([C@@H](O)[C@@H]2CN=C(N)N2[C@H]2O[C@H](CO)[C@@H](O)[C@H](O)[C@@H]2O)NC(=O)[C@H]([C@H](O)[C@@H]2CN=C(N)N2)NC(=O)[C@@H](Cc2ccc3nc(-c4cccc(F)c4)oc3c2)NC1=O | 64 (≈ 58.7 µM) | 4 (≈ 3.67 µM) | 64 (≈ 58.7 µM) | 16 (≈ 14.7 µM) | 16 (≈ 14.7 µM) | 8 (≈ 7.34 µM) | 4 (≈ 3.67 µM) | 8 (≈ 7.34 µM) | 16 (≈ 14.7 µM) | 16 (≈ 14.7 µM) | 64 (≈ 58.7 µM) | 8 (≈ 7.34 µM) | 64 (≈ 58.7 µM) | 8 (≈ 7.34 µM) | 2 (≈ 1.83 µM) | 16 (≈ 14.7 µM) | 64 (≈ 58.7 µM) | 16 (≈ 14.7 µM) | 32 (≈ 29.4 µM) | 4 (≈ 3.67 µM) | MIC [1]: 8 µg/mL (≈ 7.34 µM); MIC [2]: 16 µg/mL (≈ 14.7 µM); MIC [3]: 8 µg/mL (≈ 7.34 µM); MIC [8]: 4 µg/mL (≈ 3.67 µM); MIC [11]: 8 µg/mL (≈ 7.34 µM); MIC [12]: 32 µg/mL (≈ 29.4 µM); MIC [17]: 64 µg/mL (≈ 58.7 µM); MIC [20]: 8 µg/mL (≈ 7.34 µM); MIC [21]: 16 µg/mL (≈ 14.7 µM); MIC [30]: 8 µg/mL (≈ 7.34 µM); MIC [31]: 4 µg/mL (≈ 3.67 µM); MIC [32]: 16 µg/mL (≈ 14.7 µM); MIC [33]: 32 µg/mL (≈ 29.4 µM); MIC [34]: 8 µg/mL (≈ 7.34 µM); MIC [35]: 8 µg/mL (≈ 7.34 µM); MIC [36]: 32 µg/mL (≈ 29.4 µM); MIC [37]: 8 µg/mL (≈ 7.34 µM)
2 | C[C@@H](c1ccccc1)[C@@H]1NC(=O)CNC(=O)[C@H](CO)NC(=O)[C@@H]([C@@H](O)[C@@H]2CN=C(N)N2[C@H]2O[C@H](CO)[C@@H](O)[C@H](O)[C@@H]2O)NC(=O)[C@H]([C@H](O)[C@@H]2CN=C(N)N2)NC(=O)[C@@H](Cc2ccc3nc(-c4ccc(N(C)C)cc4)oc3c2)NC1=O | 32 (≈ 28.7 µM) | 4 (≈ 3.59 µM) | 64 (≈ 57.4 µM) | 32 (≈ 28.7 µM) | 8 (≈ 7.17 µM) | 8 (≈ 7.17 µM) | 4 (≈ 3.59 µM) | 4 (≈ 3.59 µM) | 16 (≈ 14.3 µM) | 8 (≈ 7.17 µM) | 32 (≈ 28.7 µM) | 32 (≈ 28.7 µM) | 64 (≈ 57.4 µM) | 8 (≈ 7.17 µM) | 2 (≈ 1.79 µM) | 8 (≈ 7.17 µM) | 32 (≈ 28.7 µM) | 8 (≈ 7.17 µM) | 32 (≈ 28.7 µM) | 16 (≈ 14.3 µM) | MIC [38]: 32 µg/mL (≈ 28.7 µM); MIC [39]: 8 µg/mL (≈ 7.17 µM); MIC [40]: 64 µg/mL (≈ 57.4 µM); MIC [41]: 8 µg/mL (≈ 7.17 µM); MIC [42]: 8 µg/mL (≈ 7.17 µM); MIC [43]: 4 µg/mL (≈ 3.59 µM); MIC [44]: 8 µg/mL (≈ 7.17 µM); MIC [45]: 16 µg/mL (≈ 14.3 µM); MIC [30]: 8 µg/mL (≈ 7.17 µM); MIC [46]: 8 µg/mL (≈ 7.17 µM); MIC [32]: 2 µg/mL (≈ 1.79 µM); MIC [47]: 16 µg/mL (≈ 14.3 µM); MIC [33]: 32 µg/mL (≈ 28.7 µM); MIC [34]: 8 µg/mL (≈ 7.17 µM); MIC [36]: 32 µg/mL (≈ 28.7 µM); MIC [48]: 16 µg/mL (≈ 14.3 µM); MIC [49]: 32 µg/mL (≈ 28.7 µM)
